# Laboratory results taken from patent EP2829536A1, “4-Nitro-5-dichloromethylpyrazol derivatives for the treatment of infectious diseases” (priority 2013, dated 2015).
# “Also recorded” adds a separate entry of the source. Read-outs that look alike come from different tables or passages of the source.
# Columns and labels:
# M. bovis BCG [1] = assay: microbe, parasite or virus in culture; assay type: cell-based; conditions: Mycobacterium tuberculosis variant bovis BCG
# [2] = Acute oral toxicity in mice; conditions: for No. of dead mice: 5 mice, 14 days; for % Cumulative of dead mice: Reed-Muench method
# PtK2 cells = assay: Effect on cell morphology / endoplasmic reticulum by immunocytochemistry (ICC); assay type: cell-based, rat kangaroo; conditions: for morphological effect / ER stress: PtK2 cells, overnight
# Procedure: Cell lines and media: Cells were grown at 37°C and 5% CO2 in the following media supplemented with 10 % FBS(Gibco): • L-929 cells (mouse connective tissue fibroblast: Dulbecco's modified Eagle's medium (DMEM), Lonza • PtK2 cells (rat kangaroo kidney epithelial cells): Minimum Essential Medium (MEM) medium, supplemented with 1 % non-essential amino acids and 1 % glutamax, Invitrogen.
# The effects of the tested compounds on cell proliferation and the acute toxic effects were assayed in vitro on L929 cell line. The metabolic activity was measured by means of (MTT, (3-(4,5-Dimethylthiazol-2-yl)-2,5-diphenyltetrazolium bromide) cell survival colorimetric assay. Effect on proliferation: 60 µl of serial dilutions of the test compounds were added to 120 µl aliquots of a cell suspension (50,000 cells/ml) in 96-well microplates then incubated 5 days at 37°C and 5% CO2. 20 µl MTT dye were added to a final concentration of 0.5 mg/ml. After 2 h the precipitate of formazan crystals was centrifuged, and the supernatant discarded. After washing with PBS, the precipitate was dissolved in 100 µl of acidified propanol. The plates were stirred for 20 minutes and the optical density of the resulting color was measured at 590 nm. Acute toxic effect: It was investigated by plating 120 µl aliquots of a cell suspension (100,000-200,000 cells/ml) in 96-well microplates. The cells were incubated at 37°C and 5% CO2 and allowed to grow for two days to stop the cell propagation. Then 60 µl of serial dilutions of the test compounds were added and incubated for further 24h. Then the MTT assay was performed as described before. Results were expressed as the percentage of cellular viability in comparison to cells that were treated only with the vehicle. The IC50 values were determined as the concentrations at which cells developed 50% of the absorbance of untreated control cells as estimated from the dose-response curves of two parallel experiments. Immunofluorescence staining: The effects of substances on the phenotypical changes of cell shape and adhesion were investigatedin the potoroo (PtK2) cells after staining of the nucleus and the endoplasmic reticulum (ER). PtK2 cells were grown on cover slips in 4-well plates. semi-confluent cells were treated with test compounds and the plates were incubated over the night. The cells were fixed with cold methanol /acetone (1:1) for 10 min. Then the cells were washed with PBS and the primary antibody (anti GRP-94, thermoscientific) was added and incubated for 45 min and washed with PBS. Secondary antibody (Alexaflour goat anti-rat 488, Invitrogen) was then added to the cells and incubated for additional 45 min. Cells were washed with PBS and Cover slips were mounted in anti-fade mounting medium with DAPI (Invitrogen). Images were taken with a CCD camera attached to a fluorescence microscope.
# The effects of substances on the phenotypical changes of cell shape and adhesion were investigated by the technique of immunocytochemistry (ICC). The endoplasmic reticulum (ER) was investigated upon treatment of the potoroo cells (PtK2) cells with/without test compounds.
# PtK2 cells were grown on cover slips in 4-well plates. semi-confluent cells were treated with test compounds and the plates were incubated over the night. The cells were fixed with cold methanol /acetone for 10 min. Then the cells were washed with PBS and the primary antibody (anti GRP-94, thermoscientific) was added and incubated for 45 min and washed with PBS. […]
# [3] = female, C57/BL6, mouse, in vivo; for F (bioavailability): po
# Description: (§1) Mice were weighed and checked according to the protocols and observation data sheets that were requested. Animals were followed for weight loss, apparent good health (bristled hair and wounded skin) and behaviour (signs of aggressiveness or isolation). Animals: Young adult (6-8 weeks old) female C57/BL6 mice, 20 mice for acute oral toxicity testing and 81 mice for PK experiment were used. The animals were nulliparous and non-pregnant weighing 20 ±1.5 g each. They were maintained in their cages provided with a standard laboratory rodent diet and unlimited supply of drinking water and were allowed to acclimatize to the laboratory conditions for seven days before starting the experiments. The temperature in the experimental animal room was kept at 22°C ± 3°C and the relative humidity was 50 ± 20 %. Lighting was artificial with the sequence 12 hours light and 12 hours dark. Substance formulation for in vivo model: Doses were prepared in 5% DMSO in sterile water for oral dosing through oral gavage at a dose volume of 0.3 ml, and in 5% DMSO in PBS, pH 7.4 for IV bolus injection via tail vein at a dose volume 0.1 ml.
# (§2) The animals were divided into one IV group (27 mice), 2 oral groups (24 mice each), control IV group (3 mice) and control oral group (3 mice). The IV group and one oral group were dosed with 12.5 mg/kg and the other oral group was dosed with 25 mg/kg, while the control groups received the vehicle. All blood samples were collected at 15 and 30 min and 1, 2, 4, 6, 8, and 24 h after oral dosing, and at 5, 15, and 30 min and 1, 2, 4, 6, 8, and 24 h following intravenous administration. The blood was collected from the control groups at 24 h. Mice were euthanized with isoflurane and a 0.3 mL aliquot of blood was collected via terminal bleed from three mice at each time point. Blood samples were collected in heparin as anticoagulant and plasma was harvested by centrifugation at 10,000 rpm for 2 minutes. Plasma samples were kept at -80 °C until analysis.
# L929 cell line [4] = assay: MTT assay, effect on proliferation (5 days); assay type: cell-based; conditions: Mus musculus, L929, 120 h
# [5] = test system: H37Rv Pasteur M. tuberculosis strain; assay: Effectivity in mice infected with M. tuberculosis (bacillary load in lung and spleen); assay type: in vivo; conditions: for p (Lungs) / p (Spleen): vs sham
# Procedure: Lx079 as well as two other components, Lx059 which is 10% DMSO in PBS buffer and Lx069 which is a combination of ethambutol (0.8 mg/ml) and myxopyronine (0.2 mg/ml), were tested for drug effectivity in mice. Two controls were included in the study (sham, non treated; and treated with Isoniazide (INH, 25 mg/kg).
# The animals were infected at time point 0 with M. tuberculosis through an airborne infection apparatus (Glas-col Inc., Terre Haute, IN, USA) for infection with a low dose of H37Rv Pasteur M. tuberculosis strain. Nebulization provided an approximate uptake of 20-50 bacilli by mice lungs. The treatments and controls results were processed blindly. The experiment was run including 10 C57BL/6 mice per group. A volume of 0.2mL of each treatment was administered orally every day for 5 days, on week 2 post infection.
# Mice were euthanized on week 3 with isoflurane (inhalation excess), and lung and spleen samples removed to and mechanically disrupted in order to obtain tissue homogenates to be plated cultured in Becton Dickinson 7H11 Middlebrook agar (Bennex Ltd, Shannon, Ireland) and incubated at 37 °C. Viable bacteria (Colony Forming Units, CFUs) were counted four weeks after, data being recorded as the log of the number of CFUs recovered per organ. The results of the different groups were represented graphically, compared and evaluated for statistically significant differences (non parametric comparison between each candidate and each control, Mann Whitney test), with the differences being considered significant at P≤0.05 (Graphpad software).
# The effect on the bacillary load of each candidate results have been logarithmically represented as CFU/mL in the graphs attached. The lung and spleen results of each candidate and controls evaluated have been represented together (as box and whiskers, 5-95 percentiles plotted) and also per candidate with sham (results of each mouse and median and standard deviation plotted). Statistically significant differences (p<0.05) are marked with * if existing between the evaluated group and sham.
# L929 cell line [6] = assay: MTT assay, acute toxic effect (24 h); assay type: cell-based; conditions: Mus musculus, L929, 24 h; 1 day (acute toxic effect)
# M. tuberculosis H37Rv = assay: Minimal inhibitory concentration by resazurin microtiter assay (REMA); assay type: cell-based; conditions: Mycobacterium tuberculosis, 168 h, 7 days incubation, read-out: (MIC) against M. tuberculosis H37Rv
# in vivo = conditions: female, C57/BL6, mouse; for bioavailability: F (bioavailability)
# Description: as §1, §2
# M. bovis BCG [7] = assay type: cell-based
# [8] = mouse, in vivo
# [9] = Hepatic microsomal stability; assay type: in vitro ADME, mice
# [10] = dose group Lx079-1 (dose not given)
# [11] = dose group Lx079-2 (dose not given)
# [12] = dose group Lx079-3 (dose not given)
# [13] = dose group Lx079-4 (dose not given)
# [14] = dose group Lx079-5 (dose not given)
# [15] = dose group Lx079-6 (dose not given)
smiles,measurement,setting,value
"CCNCCOc1nn(-c2c(Cl)cc(Cl)cc2Cl)c(C(Cl)Cl)c1[N+](=O)[O-].Cl [Lx089, 2-((5-(Dichloromethyl)-4-nitro-1-(2,4,6-trichlorophenyl)-1H-pyrazol-3-yl)oxy)-N-ethylethanaminium chloride]",MIC,M. bovis BCG [1],0.781 µg/mL
"CNCCOc1nn(-c2c(Cl)cc(Cl)cc2Cl)c(C(Cl)Cl)c1[N+](=O)[O-].Cl [LX079, 2-((5-(Dichloromethyl)-4-nitro-1-(2,4,6-trichlorophenyl)-1H-pyrazol-3-yl)oxy)-N-methylethanaminium chloride]",No. of dead mice,[2]; 62.5 mg/kg single oral dose,0
same,% Cumulative of dead mice,[2]; 62.5 mg/kg single oral dose,0%
same,No. of dead mice,[2]; 125 mg/kg single oral dose,2
same,% Cumulative of dead mice,[2]; 125 mg/kg single oral dose,22%
same,No. of dead mice,[2]; 250 mg/kg single oral dose,1
same,% Cumulative of dead mice,[2]; 250 mg/kg single oral dose,42.85%
same,LD50 at 14 days,"[2]; female, C57/BL6, mouse, in vivo, po",> 250 mg/kg
same,morphological effect / ER stress,PtK2 cells; 5µg/ml,did not produce morphological abnormalities
same,morphological effect / ER stress,PtK2 cells; 6.6 µg/ml,induced massive ER stress
same,morphological changes of the treated cells after immunofluorescence staining,PtK2 cells; concentration 25 times higher than the MIC,no morphological changes
same,C0,"[3]; iv, 12.5 mg/kg",660 ± 70 ng/mL
same,CL,"[3]; iv, 12.5 mg/kg",394 ± 20.3 mL/min/kg
same,K (elimination rate constant),"[3]; iv, 12.5 mg/kg",1.79 ± 0.44
same,t1/2,"[3]; iv, 12.5 mg/kg",25.8 min
same,time in which the plasma concentration was exceeding the in vitro MIC (T > MIC),"[3]; iv, 12.5 mg/kg",less than 1 hour
same,F (bioavailability),[3]; 12.5 mg/kg,27.583 ± 2.457%
same,F (bioavailability),[3]; 25 mg/kg,32.662 ± 7.715%
same,IC50,L929 cell line [4],2.2 µg/mL
same,effect on the bacillary load in lungs and spleen compared to sham,"[5]; C57BL/6 mice, oral, every day for 5 days on week 2 post infection",decrease the bacillary load in both in lungs and spleen; also recorded: clear positive inhibitory effect on the survival of the TB pathogen
same,p (Lungs),[5]; [10],0.0032
same,p (Spleen),[5]; [10],0.0009
same,p (Lungs),[5]; [11],0.0002
same,p (Spleen),[5]; [11],0.0343
same,p (Lungs),[5]; [12],0.0010
same,p (Spleen),[5]; [12],0.0002
same,p (Lungs),[5]; [13],0.0004
same,p (Spleen),[5]; [13],0.0117
same,p (Lungs),[5]; [14],0.0002
same,p (Spleen),[5]; [14],0.0164
same,p (Lungs),[5]; [15],0.0002
same,p (Spleen),[5]; [15],0.0031
same,IC50,L929 cell line [6],5.5 µg/mL
same,MIC,M. tuberculosis H37Rv,0.18 µg/mL
same,AUC,"in vivo; iv, 12.5 mg/kg",530 ± 30 ng·h/mL
same,C0,"in vivo; iv, 12.5 mg/kg",660 ± 70 ng/mL
same,clearance,"in vivo; iv, 12.5 mg/kg",394 mL/min/kg
same,half-life,"in vivo; iv, 12.5 mg/kg",25.8 ± 16.2 min
same,AUC,"in vivo; po, 12.5 mg/kg",150 ± 20 ng·h/mL
same,bioavailability,"in vivo; po, 12.5 mg/kg",27.6 ± 2.46%
same,AUC,"in vivo; po, 25 mg/kg",350 ± 70 ng·h/mL
same,bioavailability,"in vivo; po, 25 mg/kg",32.7 ± 7.72%
same,MIC,M. bovis BCG [1],0.6 µg/mL
same,decrease of log CFU,"M. bovis BCG [7]; 2 µg/ml, 72 hours, in comparison to the untreated controls",around 2 log CFU
same,intracellular activity against M. bovis BCG,"M. bovis BCG [7]; infected macrophage model, Fig. 1",significant intracellular activity
same,"microscopic examination of liver, spleen, lungs, and kidneys",[8],No pathological abnormalities were detected
same,t1/2 (in vitro),"[9]; 1 µM, mice microsomes 0.5 mg/mL, NADPH, 37 °C",5.937 ± 2.36 min
same,half-life at 1 µM,"[9]; mouse, pooled liver microsomes, pH 7.4, 1 µM, mice microsomes 0.5 mg/mL, NADPH, 37 °C, read-out: t1/2 (in vitro)",5.94 ± 2.36 min
same,microsomal CLint at 1 µM,"[9]; mouse, pooled mouse liver microsomes, pH 7.4, mice microsomes, corrected for binding to microsomes, read-out: CLint, inc",2820 ± 1120 µL/min/mg
same,CLint (hepatic intrinsic clearance),"[9]; scaled up from the in vitro t1/2, SMW: standard mouse weight",221.81± 88.23 ml/min/SMW
"CNCCOc1nn(-c2c(Cl)cc(C(F)(F)F)cc2Cl)c(C(Cl)Cl)c1[N+](=O)[O-].Cl [Lx088, 2-((1-(2,6-Dichloro-4-(trifluoromethyl)phenyl)-5-(dichloromethyl)-4-nitro-1H-pyrazol-3-yl)oxy)-N-methylethanaminium chloride]",morphological effect / ER stress,PtK2 cells; 6.6 µg/ml,produced less ER stress
same,morphological effect / ER stress,PtK2 cells; 13.3 µg/ml,induced massive ER stress
same,MIC,M. bovis BCG [1],0.781 µg/mL
